Data from patent US20240024488A1, “COMPOUNDS AND USES THEREOF” (Foghorn Therapeutics Inc., priority 2020, published 2024).

Experiments:
HiBit-BRM fusion protein = biological target: T1, HiBit-BRM fusion protein (Homo sapiens, UniProt P51531); assay: HiBiT-BRM cell-based degradation assay (Nano-Glo HiBiT Lytic Detection, 24 h); details: HeLa cell line expressing HiBiT-BRM
T1 construct: expressed in transfected cells
In short: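 Percent BRM loss was derived from HiBiT luminescence relative to DMSO-treated cells and cells given 2 μM of a known BRM/BRG1 degrader. Treatment lasted 24 h in HiBiT-BRM HeLa cells, with a top final concentration of 30 μM.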

[1] = biological target: T2, HiBit-BRG1 fusion protein (Homo sapiens, UniProt P51532); assay: HiBiT-BRG1 cell-based degradation assay (Nano-Glo HiBiT Lytic Detection, 24 h); details: HeLa cell line expressing HiBit-BRG1 and LgBit, read-out: BRG1 HiBit Degradation Maximum (%)
T2 construct: expressed in transfected cells
T2 sequence (P51532 whole entry, the tested form may be a part): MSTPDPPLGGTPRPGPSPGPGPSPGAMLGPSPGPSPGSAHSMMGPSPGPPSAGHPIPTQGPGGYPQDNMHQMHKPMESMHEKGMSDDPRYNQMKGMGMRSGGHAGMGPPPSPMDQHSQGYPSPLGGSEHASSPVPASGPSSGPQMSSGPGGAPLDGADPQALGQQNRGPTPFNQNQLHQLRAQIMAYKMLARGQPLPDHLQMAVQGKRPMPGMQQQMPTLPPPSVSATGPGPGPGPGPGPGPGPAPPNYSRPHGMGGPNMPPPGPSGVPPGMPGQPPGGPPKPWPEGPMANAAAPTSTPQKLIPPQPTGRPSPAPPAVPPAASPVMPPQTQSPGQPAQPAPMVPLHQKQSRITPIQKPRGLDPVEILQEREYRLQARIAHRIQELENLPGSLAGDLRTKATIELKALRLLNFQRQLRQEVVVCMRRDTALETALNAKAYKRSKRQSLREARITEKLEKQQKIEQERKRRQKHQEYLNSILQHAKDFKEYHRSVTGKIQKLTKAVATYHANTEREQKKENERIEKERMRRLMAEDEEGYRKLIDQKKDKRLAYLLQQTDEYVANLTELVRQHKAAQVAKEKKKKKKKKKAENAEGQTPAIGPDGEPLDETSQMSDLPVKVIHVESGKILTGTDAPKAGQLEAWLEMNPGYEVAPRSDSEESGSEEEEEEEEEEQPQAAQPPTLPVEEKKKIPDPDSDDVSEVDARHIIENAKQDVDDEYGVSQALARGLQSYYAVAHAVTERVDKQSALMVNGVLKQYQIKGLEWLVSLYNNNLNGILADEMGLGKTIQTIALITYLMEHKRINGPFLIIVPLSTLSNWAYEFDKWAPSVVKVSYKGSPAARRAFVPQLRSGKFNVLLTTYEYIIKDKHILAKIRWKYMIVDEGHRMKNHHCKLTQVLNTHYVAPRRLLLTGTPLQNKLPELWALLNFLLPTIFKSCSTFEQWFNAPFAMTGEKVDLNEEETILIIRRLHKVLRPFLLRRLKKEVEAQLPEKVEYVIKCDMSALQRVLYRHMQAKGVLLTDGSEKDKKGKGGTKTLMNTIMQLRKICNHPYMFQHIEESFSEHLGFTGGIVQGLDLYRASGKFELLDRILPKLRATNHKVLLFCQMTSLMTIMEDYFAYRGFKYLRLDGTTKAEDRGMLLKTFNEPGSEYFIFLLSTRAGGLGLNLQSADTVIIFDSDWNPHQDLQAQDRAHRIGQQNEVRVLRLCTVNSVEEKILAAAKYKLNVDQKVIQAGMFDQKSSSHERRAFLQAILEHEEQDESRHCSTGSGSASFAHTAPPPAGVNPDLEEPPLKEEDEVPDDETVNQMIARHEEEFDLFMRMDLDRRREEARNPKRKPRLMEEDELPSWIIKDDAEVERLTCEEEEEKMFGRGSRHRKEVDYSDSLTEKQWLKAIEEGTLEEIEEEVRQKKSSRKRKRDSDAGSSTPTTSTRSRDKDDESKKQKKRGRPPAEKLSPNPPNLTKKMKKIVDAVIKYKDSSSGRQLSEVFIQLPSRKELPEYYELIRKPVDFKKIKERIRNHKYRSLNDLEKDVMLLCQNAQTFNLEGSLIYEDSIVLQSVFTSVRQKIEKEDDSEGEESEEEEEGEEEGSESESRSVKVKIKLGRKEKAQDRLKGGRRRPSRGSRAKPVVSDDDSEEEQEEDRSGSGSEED
In short: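 Stable HeLa line co-expressing HiBit-BRG1 and LgBit, 5000 cells/well, treated 24 h in a tissue culture incubator. Lysed with Nano-Glo HiBiT lytic reagent, luminescence read. % degradation normalized to DMSO (high control) and 2 μM reference BRM/BRG1 degrader (low control).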

T1 sequence (P51531 whole entry, the tested form may be a part): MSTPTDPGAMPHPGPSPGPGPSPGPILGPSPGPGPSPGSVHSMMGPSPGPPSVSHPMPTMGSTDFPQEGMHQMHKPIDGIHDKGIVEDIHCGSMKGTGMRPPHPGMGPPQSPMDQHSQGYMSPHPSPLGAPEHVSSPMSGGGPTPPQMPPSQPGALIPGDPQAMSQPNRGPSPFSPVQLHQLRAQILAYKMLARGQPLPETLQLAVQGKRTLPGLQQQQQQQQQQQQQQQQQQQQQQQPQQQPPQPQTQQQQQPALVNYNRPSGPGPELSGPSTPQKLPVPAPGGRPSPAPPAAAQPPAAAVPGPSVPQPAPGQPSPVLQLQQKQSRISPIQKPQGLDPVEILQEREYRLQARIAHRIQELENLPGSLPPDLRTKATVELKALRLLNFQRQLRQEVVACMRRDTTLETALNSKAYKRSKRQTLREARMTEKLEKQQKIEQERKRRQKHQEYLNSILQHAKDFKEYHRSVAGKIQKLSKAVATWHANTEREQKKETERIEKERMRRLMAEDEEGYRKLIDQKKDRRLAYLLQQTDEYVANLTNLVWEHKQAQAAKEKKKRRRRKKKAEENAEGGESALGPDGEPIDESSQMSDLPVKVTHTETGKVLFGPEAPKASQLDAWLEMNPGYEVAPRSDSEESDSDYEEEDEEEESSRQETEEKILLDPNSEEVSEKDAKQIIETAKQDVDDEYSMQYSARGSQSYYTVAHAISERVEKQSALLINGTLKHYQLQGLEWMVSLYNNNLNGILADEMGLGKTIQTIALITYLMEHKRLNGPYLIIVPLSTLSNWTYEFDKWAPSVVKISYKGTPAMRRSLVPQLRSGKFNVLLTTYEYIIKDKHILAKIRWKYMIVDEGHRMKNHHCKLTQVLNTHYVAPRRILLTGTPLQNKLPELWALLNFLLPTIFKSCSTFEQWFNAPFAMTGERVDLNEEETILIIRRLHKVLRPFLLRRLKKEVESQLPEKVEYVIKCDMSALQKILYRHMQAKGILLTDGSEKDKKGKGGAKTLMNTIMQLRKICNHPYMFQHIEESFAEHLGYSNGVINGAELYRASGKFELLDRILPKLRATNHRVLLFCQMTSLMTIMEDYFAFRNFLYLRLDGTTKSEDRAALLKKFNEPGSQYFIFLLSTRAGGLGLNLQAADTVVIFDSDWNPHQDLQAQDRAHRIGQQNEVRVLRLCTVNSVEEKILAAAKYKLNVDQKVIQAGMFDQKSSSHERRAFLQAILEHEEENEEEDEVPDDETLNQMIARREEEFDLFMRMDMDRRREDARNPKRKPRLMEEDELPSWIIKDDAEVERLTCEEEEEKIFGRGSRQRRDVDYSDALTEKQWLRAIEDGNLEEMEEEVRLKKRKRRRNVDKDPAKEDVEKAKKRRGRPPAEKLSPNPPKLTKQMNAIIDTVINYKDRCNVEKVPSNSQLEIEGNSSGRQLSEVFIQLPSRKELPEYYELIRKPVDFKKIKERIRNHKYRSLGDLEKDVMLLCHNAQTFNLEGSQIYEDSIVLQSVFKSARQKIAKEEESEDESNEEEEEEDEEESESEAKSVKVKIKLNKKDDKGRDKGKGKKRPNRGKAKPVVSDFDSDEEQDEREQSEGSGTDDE

SMILES: O=C1CCC(N2C(=O)c3ccc(N4CCN(CCC(=O)N5CC(c6cc7cc(-c8ccccc8O)nnc7[nH]6)C5)CC4)cc3C2=O)C(=O)N1 (stereo not shown) [Compound 26, 2-(2,6-dioxopiperidin-3-yl)-5-(4-(3-(3-(3-(2-hydroxyphenyl)-7H-pyrrolo[2,3-c]pyridazin-6-yl)azetidin-1-yl)-3-oxopropyl)piperazin-1-yl)isoindoline-1,3-dione]
- BRM HiBit Degradation Maximum (%) (HiBit-BRM fusion protein): C (“C” indicates maximum degradation < 50%)
- Dmax [1]: < 50%

SMILES: O=C1CCC(N2C(=O)c3cccc(NCCOCCOCCC(=O)N4CC(c5cc6cc(-c7ccccc7O)nnc6[nH]5)C4)c3C2=O)C(=O)N1 (stereo not shown) [Compound 27, 2-(2,6-dioxopiperidin-3-yl)-4-((2-(2-(3-(3-(3-(2-hydroxyphenyl)-7H-pyrrolo[2,3-c]pyridazin-6-yl)azetidin-1-yl)-3-oxopropoxy)ethoxy)ethyl)amino)isoindoline-1,3-dione]
- BRM HiBit Degradation Maximum (%) (HiBit-BRM fusion protein): C (“C” indicates maximum degradation < 50%)
- Dmax [1]: < 50%

SMILES: O=C1CCC(N2C(=O)c3cccc(NCCCCCCCCCCC(=O)N4CC(c5cc6cc(-c7ccccc7O)nnc6[nH]5)C4)c3C2=O)C(=O)N1 (stereo not shown) [Compound 28, 2-(2,6-dioxopiperidin-3-yl)-4-((11-(3-(3-(2-hydroxyphenyl)-7H-pyrrolo[2,3-c]pyridazin-6-yl)azetidin-1-yl)-11-oxoundecyl)amino)isoindoline-1,3-dione]
- BRM HiBit Degradation Maximum (%) (HiBit-BRM fusion protein): C (“C” indicates maximum degradation < 50%)
- Dmax [1]: < 50%

SMILES: O=C1CCC(N2C(=O)c3ccc(NCCOCCOCCC(=O)N4CC(c5cc6cc(-c7ccccc7O)nnc6[nH]5)C4)cc3C2=O)C(=O)N1 (stereo not shown) [Compound 29, 2-(2,6-dioxopiperidin-3-yl)-5-((2-(2-(3-(3-(3-(2-hydroxyphenyl)-7H-pyrrolo[2,3-c]pyridazin-6-yl)azetidin-1-yl)-3-oxopropoxy)ethoxy)ethyl)amino)isoindoline-1,3-dione]
- BRM HiBit Degradation Maximum (%) (HiBit-BRM fusion protein): C (“C” indicates maximum degradation < 50%)
- Dmax [1]: < 50%

SMILES: O=C1CCC(N2C(=O)c3cccc(OCCCCCCCC(=O)N4CC(c5cc6cc(-c7ccccc7O)nnc6[nH]5)C4)c3C2=O)C(=O)N1 (stereo not shown) [Compound 30, 2-(2,6-dioxopiperidin-3-yl)-4-((8-(3-(3-(2-hydroxyphenyl)-7H-pyrrolo[2,3-c]pyridazin-6-yl)azetidin-1-yl)-8-oxooctyl)oxy)isoindoline-1,3-dione]
- BRM HiBit Degradation Maximum (%) (HiBit-BRM fusion protein): C (“C” indicates maximum degradation < 50%)
- Dmax [1]: < 50%

SMILES: O=C1CCC(N2C(=O)c3cccc(OCCCCCCC(=O)N4CC(c5cc6cc(-c7ccccc7O)nnc6[nH]5)C4)c3C2=O)C(=O)N1 (stereo not shown) [Compound 31, 2-(2,6-dioxopiperidin-3-yl)-4-((7-(3-(3-(2-hydroxyphenyl)-7H-pyrrolo[2,3-c]pyridazin-6-yl)azetidin-1-yl)-7-oxoheptyl)oxy)isoindoline-1,3-dione]
- BRM HiBit Degradation Maximum (%) (HiBit-BRM fusion protein): C (“C” indicates maximum degradation < 50%)
- Dmax [1]: < 50%

SMILES: O=C1CCC(N2C(=O)c3ccc(NCCCCCCCCCCC(=O)N4CC(c5cc6cc(-c7ccccc7O)nnc6[nH]5)C4)cc3C2=O)C(=O)N1 (stereo not shown) [Compound 32, 2-(2,6-dioxopiperidin-3-yl)-5-((11-(3-(3-(2-hydroxyphenyl)-7H-pyrrolo[2,3-c]pyridazin-6-yl)azetidin-1-yl)-11-oxoundecyl)amino)isoindoline-1,3-dione]
- BRM HiBit Degradation Maximum (%) (HiBit-BRM fusion protein): C (“C” indicates maximum degradation < 50%)
- Dmax [1]: < 50%

SMILES: O=C1CCC(N2C(=O)c3cccc(NCCCCCCCCC(=O)N4CC(c5cc6cc(-c7ccccc7O)nnc6[nH]5)C4)c3C2=O)C(=O)N1 (stereo not shown) [Compound 33, 2-(2,6-dioxopiperidin-3-yl)-4-((9-(3-(3-(2-hydroxyphenyl)-7H-pyrrolo[2,3-c]pyridazin-6-yl)azetidin-1-yl)-9-oxononyl)amino)isoindoline-1,3-dione]
- BRM HiBit Degradation Maximum (%) (HiBit-BRM fusion protein): C (“C” indicates maximum degradation < 50%)
- Dmax [1]: < 50%

SMILES: O=C1CCC(N2C(=O)c3ccc(N4CC5(CN(CCC(=O)N6CC(c7cc8cc(-c9ccccc9O)nnc8[nH]7)C6)C5)C4)cc3C2=O)C(=O)N1 (stereo not shown) [Compound 34, 2-(2,6-dioxopiperidin-3-yl)-5-(6-(3-(3-(3-(2-hydroxyphenyl)-7H-pyrrolo[2,3-c]pyridazin-6-yl)azetidin-1-yl)-3-oxopropyl)-2,6-diazaspiro[3.3]heptan-2-yl)isoindoline-1,3-dione]
- BRM HiBit Degradation Maximum (%) (HiBit-BRM fusion protein): C (“C” indicates maximum degradation < 50%)
- Dmax [1]: < 50%

SMILES: Cc1ncsc1-c1ccc(CNC(=O)[C@@H]2C[C@@H](O)CN2C(=O)[C@@H](NC(=O)CCN2CC(c3c[nH]c4nnc(-c5ccccc5O)cc34)C2)C(C)(C)C)cc1 [Compound 35, (2S,4R)-4-hydroxy-1-((S)-2-(3-(3-(3-(2-hydroxyphenyl)-7H-pyrrolo[2,3-c]pyridazin-5-yl)azetidin-1-yl)propanamido)-3,3-dimethylbutanoyl)-N-(4-(4-methylthiazol-5-yl)benzyl)pyrrolidine-2-carboxamide]
- BRM HiBit Degradation Maximum (%) (HiBit-BRM fusion protein): C (“C” indicates maximum degradation < 50%)
- Dmax [1]: < 50%

SMILES: Cc1ncsc1-c1ccc(CNC(=O)[C@@H]2C[C@@H](O)CN2C(=O)[C@@H](NC(=O)CCCCCCCC(=O)N2CC(c3c[nH]c4nnc(-c5ccccc5O)cc34)C2)C(C)(C)C)cc1 [Compound 36, (2S,4R)-4-hydroxy-1-((S)-2-(9-(3-(3-(2-hydroxyphenyl)-7H-pyrrolo[2,3-c]pyridazin-5-yl)azetidin-1-yl)-9-oxononanamido)-3,3-dimethylbutanoyl)-N-(4-(4-methylthiazol-5-yl)benzyl)pyrrolidine-2-carboxamide]
- BRM HiBit Degradation Maximum (%) (HiBit-BRM fusion protein): C (“C” indicates maximum degradation < 50%)
- Dmax [1]: < 50%

SMILES: Cc1ncsc1-c1ccc(CNC(=O)[C@@H]2C[C@@H](O)CN2C(=O)[C@@H](NC(=O)CCCCCCCCCC(=O)N2CC(c3c[nH]c4nnc(-c5ccccc5O)cc34)C2)C(C)(C)C)cc1 [Compound 37, (2S,4R)-4-hydroxy-1-((S)-2-(11-(3-(3-(2-hydroxyphenyl)-7H-pyrrolo[2,3-c]pyridazin-5-yl)azetidin-1-yl)-11-oxoundecanamido)-3,3-dimethylbutanoyl)-N-(4-(4-methylthiazol-5-yl)benzyl)pyrrolidine-2-carboxamide]
- BRM HiBit Degradation Maximum (%) (HiBit-BRM fusion protein): C (“C” indicates maximum degradation < 50%)
- Dmax [1]: < 50%

SMILES: Cc1ncsc1-c1ccc(CNC(=O)[C@@H]2C[C@@H](O)CN2C(=O)[C@@H](NC(=O)CCCCCCCCCCCCCCCCC(=O)N2CC(c3c[nH]c4nnc(-c5ccccc5O)cc34)C2)C(C)(C)C)cc1 [Compound 38, (2S,4R)-4-hydroxy-1-((S)-2-(18-(3-(3-(2-hydroxyphenyl)-7H-pyrrolo[2,3-c]pyridazin-5-yl)azetidin-1-yl)-18-oxooctadecanamido)-3,3-dimethylbutanoyl)-N-(4-(4-methylthiazol-5-yl)benzyl)pyrrolidine-2-carboxamide]
- BRM HiBit Degradation Maximum (%) (HiBit-BRM fusion protein): C (“C” indicates maximum degradation < 50%)
- Dmax [1]: < 50%

SMILES: Cc1ncsc1-c1ccc(CNC(=O)[C@@H]2C[C@@H](O)CN2C(=O)[C@@H](NC(=O)CCCCCCCCCCCCCC(=O)N2CC(c3c[nH]c4nnc(-c5ccccc5O)cc34)C2)C(C)(C)C)cc1 [Compound 39, (2S,4R)-4-hydroxy-1-((S)-2-(15-(3-(3-(2-hydroxyphenyl)-7H-pyrrolo[2,3-c]pyridazin-5-yl)azetidin-1-yl)-15-oxopentadecanamido)-3,3-dimethylbutanoyl)-N-(4-(4-methylthiazol-5-yl)benzyl)pyrrolidine-2-carboxamide]
- BRM HiBit Degradation Maximum (%) (HiBit-BRM fusion protein): C (“C” indicates maximum degradation < 50%)
- Dmax [1]: < 50%

SMILES: Cc1ncsc1-c1ccc(CNC(=O)[C@@H]2C[C@@H](O)CN2C(=O)[C@@H](NC(=O)CCCC(=O)N2CC(c3c[nH]c4nnc(-c5ccccc5O)cc34)C2)C(C)(C)C)cc1 [Compound 40, (2S,4R)-4-hydroxy-1-((S)-2-(5-(3-(3-(2-hydroxyphenyl)-7H-pyrrolo[2,3-c]pyridazin-5-yl)azetidin-1-yl)-5-oxopentanamido)-3,3-dimethylbutanoyl)-N-(4-(4-methylthiazol-5-yl)benzyl)pyrrolidine-2-carboxamide]
- BRM HiBit Degradation Maximum (%) (HiBit-BRM fusion protein): C (“C” indicates maximum degradation < 50%)
- Dmax [1]: < 50%

SMILES: Cc1ncsc1-c1ccc(CNC(=O)[C@@H]2C[C@@H](O)CN2C(=O)[C@@H](NC(=O)CCCCCCCCCCCCCCC(=O)N2CC(c3c[nH]c4nnc(-c5ccccc5O)cc34)C2)C(C)(C)C)cc1 [Compound 41, (2S,4R)-4-hydroxy-1-((S)-2-(16-(3-(3-(2-hydroxyphenyl)-7H-pyrrolo[2,3-c]pyridazin-5-yl)azetidin-1-yl)-16-oxohexadecanamido)-3,3-dimethylbutanoyl)-N-(4-(4-methylthiazol-5-yl)benzyl)pyrrolidine-2-carboxamide]
- BRM HiBit Degradation Maximum (%) (HiBit-BRM fusion protein): C (“C” indicates maximum degradation < 50%)
- Dmax [1]: < 50%

SMILES: Cc1ncsc1-c1ccc(CNC(=O)[C@@H]2C[C@@H](O)CN2C(=O)[C@@H](NC(=O)CCCCCCCCCCCCCCCC(=O)N2CC(c3c[nH]c4nnc(-c5ccccc5O)cc34)C2)C(C)(C)C)cc1 [Compound 42, (2S,4R)-4-hydroxy-1-((S)-2-(17-(3-(3-(2-hydroxyphenyl)-7H-pyrrolo[2,3-c]pyridazin-5-yl)azetidin-1-yl)-17-oxoheptadecanamido)-3,3-dimethylbutanoyl)-N-(4-(4-methylthiazol-5-yl)benzyl)pyrrolidine-2-carboxamide]
- BRM HiBit Degradation Maximum (%) (HiBit-BRM fusion protein): C (“C” indicates maximum degradation < 50%)
- Dmax [1]: < 50%
